Our source for the ED50 and inhibition in vivo values is ChEMBL document CHEMBL1124295, “Synthesis and oral antiallergic activity of carboxylic acids derived from imidazo[2,1-c][1,4]benzoxazines, imidazo[1,2-a]quinolines, imidazo[1,2-a]quinoxalines, imidazo[1,2-a]quinoxalinones, pyrrolo[1,2-a]quinoxalinones, pyrrolo[2,3-a]quinoxalinones, and imidazo[2,1-b]benzothiazoles” (1988).

Structures are written as SMILES. Activity calls are given as the source filed them. No cut-off for these calls is given here.

Assay [1] concerns Rattus norvegicus. The assay can be described thus: Inhibition of the IgE-mediated passive cutaneous anaphylaxis (PCA) reaction in rat after oral administration; Inactive at 1 and 10 mg/kg. It counts as functional, organism-based. The arrangement: dose 10 mg/kg.
Assay [2] has as its system Rattus norvegicus. The assay can be described thus: Inhibition of the IgE-mediated passive cutaneous anaphylaxis (PCA) reaction in rat after intravenous administration; NA means inactive at 1 and 10 mg/Kg. It counts as functional, organism-based.
Assay [3] relates to Rattus norvegicus. The assay can be described thus: Inhibition of the IgE-mediated passive cutaneous anaphylaxis (PCA) reaction in rat after oral administration; NA means inactive at 1 and 10 mg/Kg. It counts as functional, organism-based.
The subject of assay [4] is Rattus norvegicus. The assay can be described thus: Inhibition of the IgE-mediated passive cutaneous anaphylaxis (PCA) reaction in rat after intravenous administration; Range 0.04-0.154. It counts as functional.
Assay [5] concerns Rattus norvegicus. The assay can be described thus: Inhibition of the IgE-mediated passive cutaneous anaphylaxis (PCA) reaction in rat after intravenous administration; […]. It counts as functional.
Assay [6] concerns Rattus norvegicus. The assay can be described thus: Inhibition of the IgE-mediated passive cutaneous anaphylaxis (PCA) reaction in rat after oral administration; Range 1.22-2.52. In kind it is functional.
The test system of assay [7] is Rattus norvegicus. The assay can be described thus: Inhibition of the IgE-mediated passive cutaneous anaphylaxis (PCA) reaction in rat after intravenous administration; Range 0.05-0.11. In kind it is functional.
Assay [8] concerns Rattus norvegicus. The assay can be described thus: Inhibition of the IgE-mediated passive cutaneous anaphylaxis (PCA) reaction in rat after intravenous administration; Range 1.14-3.89. In kind it is functional.
Assay [9] deals with Rattus norvegicus. The assay can be described thus: Inhibition of the IgE-mediated passive cutaneous anaphylaxis (PCA) reaction in rat after intravenous administration; Range 0.19-0.59. In kind it is functional.
For assay [10], the system named is Rattus norvegicus. The assay can be described thus: Inhibition of the IgE-mediated passive cutaneous anaphylaxis (PCA) reaction in rat after oral administration; Inactive(50% inhibition at 10 mg/kg). It counts as functional.
Assay [11] deals with Rattus norvegicus. The assay can be described thus: Inhibition of the IgE-mediated passive cutaneous anaphylaxis (PCA) reaction in rat after intravenous administration; Inactive at 1 and 10 mg/kg. In kind it is functional, organism-based. The arrangement: dose 10 mg/kg.
Assay [12] concerns Rattus norvegicus. The assay can be described thus: Inhibition of the IgE-mediated passive cutaneous anaphylaxis (PCA) reaction in rat after oral administration; Range 0.54-0.9. It counts as functional.
Assay [13] relates to Rattus norvegicus. The assay can be described thus: Inhibition of the IgE-mediated passive cutaneous anaphylaxis (PCA) reaction in rat after intravenous administration; Range 0.057-0.091. It counts as functional.
In assay [14] the test system is Rattus norvegicus. The assay can be described thus: Inhibition of the IgE-mediated passive cutaneous anaphylaxis (PCA) reaction in rat after intravenous administration; Range 2.74-6.94. In kind it is functional.
For assay [15], the system named is Rattus norvegicus. The assay can be described thus: Inhibition of the IgE-mediated passive cutaneous anaphylaxis (PCA) reaction in rat after intravenous administration; Range 0.22-0.38. It counts as functional.
In assay [16] the test system is Rattus norvegicus. The assay can be described thus: Inhibition of the IgE-mediated passive cutaneous anaphylaxis (PCA) reaction in rat after oral administration; Range 0.3-10.04. In kind it is functional.
The subject of assay [17] is Rattus norvegicus. The assay can be described thus: Inhibition of the IgE-mediated passive cutaneous anaphylaxis (PCA) reaction in rat after intravenous administration; Inactive. It counts as functional, organism-based.
The subject of assay [18] is Rattus norvegicus. The assay can be described thus: Inhibition of the IgE-mediated passive cutaneous anaphylaxis (PCA) reaction in rat after intravenous administration; Range 0.005-0.033. It counts as functional.
The test system of assay [19] is Rattus norvegicus. The assay can be described thus: Inhibition of the IgE-mediated passive cutaneous anaphylaxis (PCA) reaction in rat after oral administration; Range 0.025-0.282. It counts as functional.
In assay [20] the test system is Rattus norvegicus. The assay can be described thus: Inhibition of the IgE-mediated passive cutaneous anaphylaxis (PCA) reaction in rat after intravenous administration; NA means inactive. In kind it is functional, organism-based.
The test system of assay [21] is Rattus norvegicus. The assay can be described thus: Inhibition of the IgE-mediated passive cutaneous anaphylaxis (PCA) reaction in rat after intravenous administration; Range 0.05-0.15. It counts as functional.
The subject of assay [22] is Rattus norvegicus. The assay can be described thus: Inhibition of the IgE-mediated passive cutaneous anaphylaxis (PCA) reaction in rat after oral administration; Range 0.026-0.31. It counts as functional.
For assay [23], the system named is Rattus norvegicus. The assay can be described thus: Inhibition of the IgE-mediated passive cutaneous anaphylaxis (PCA) reaction in rat after oral administration; Range 4.38-21.4. In kind it is functional.
The subject of assay [24] is Rattus norvegicus. The assay can be described thus: Inhibition of the IgE-mediated passive cutaneous anaphylaxis (PCA) reaction in rat after intravenous administration; Range 0.91-3.86. It counts as functional.
Assay [25] concerns Rattus norvegicus. The assay can be described thus: Inhibition of the IgE-mediated passive cutaneous anaphylaxis (PCA) reaction in rat after oral administration; Range 4.65-18.7. In kind it is functional.
Assay [26] has as its system Rattus norvegicus. The assay can be described thus: Inhibition of the IgE-mediated passive cutaneous anaphylaxis (PCA) reaction in rat after intravenous administration; Range 1.61-7. It counts as functional.
Assay [27] relates to Rattus norvegicus. The assay can be described thus: Inhibition of the IgE-mediated passive cutaneous anaphylaxis (PCA) reaction in rat after oral administration; NA means inactive 1 and 10 mg/kg. It counts as functional, organism-based. Also noted: dose 10 mg/kg.
Assay [28] relates to Rattus norvegicus. The assay can be described thus: Inhibition of the IgE-mediated passive cutaneous anaphylaxis (PCA) reaction in rat after intravenous administration; Range 0.13-0.26. It counts as functional.
Assay [29] relates to Rattus norvegicus. The assay can be described thus: Inhibition of the IgE-mediated passive cutaneous anaphylaxis (PCA) reaction in rat after intravenous administration; Range 0.18-0.41. It counts as functional.

Regarding `O=C(O)c1cn2c(cc(-c3ccccc3)c3cc(Cl)ccc32)n1`, the ED50 (in general, the dose at which the effect has come halfway, by size or by number of responders) in assay [1] was “inactive”. As to `CCOC(=O)c1c(C(=O)OC)nc2n1-c1ccccc1OC2`, the ED50 result in [2] was “inactive”. Still for that read-out and setting: the value for `c1ccc2c(c1)OCc1nc(CN3CCCCC3)cn1-2` was “inactive”. Regarding `COC(=O)c1nc2n(c1CO)-c1ccccc1OC2`, the ED50 entry in [3] is “inactive”.

For `O=C(O)c1cn2c(ccc3ccc(C(F)(F)F)cc32)n1`, the 50% effect level in assay [4] (ED50) was put at a dose of 0.07 mg/kg. For `O=C(O)c1cn2c(cc(-c3ccccc3)c3ccccc32)n1`, the ED50 result in assay [1] was “inactive”. As to `O=C(O)c1cc2c(=O)n(C3CCCC3)c3ccccc3n2c1`, the ED50 in assay [5] is 0.037 mg/kg; in [6], 1.96 mg/kg.

As to `CCn1c(=O)c2nc(CO)cn2c2ccccc21`, the 50% effect level in assay [7] (ED50) was put at a dose of 0.071 mg/kg. In assay [8], `Cc1c(C(=O)O)nc2ccc3ccc(Cl)cc3n12` registered an ED50 of 1.99 mg/kg. With `COC(=O)c1nc2n(c1C(=O)O)-c1ccccc1OC2`, the ED50 result in assay [2] is “inactive”.

Compound `O=C(O)c1cn2c(n1)sc1ccccc12` came in with an ED50 in [9] of 0.33 mg/kg.

Take `COC(=O)c1nnn2c1c(=O)oc1ccccc12`: the inhibition in vivo (usually the percentage by which the read-out fell short of the control) at 10 mg/kg in [10] was determined as 50%. In the case of `O=C(O)c1cc2ccc3ccccc3n2c1`, the ED50 entry in assay [11] is “inactive”. Regarding `O=C(O)c1cn2c(cnc3ccccc32)n1` [DAZOQUINAST], the ED50 in [12] worked out at 0.13 mg/kg; in assay [13] it was 0.073 mg/kg. Consider `O=C(O)c1nc2ccc3ccccc3n2c1Br`, for which, in assay [14], the ED50 is 4.19 mg/kg. For `Cc1cc2sc3nc(C(=O)O)cn3c2cc1C`, the ED50 in [15] was 0.3 mg/kg. `CCOC(=O)c1cn2c(cc(Cl)c3ccc(Cl)cc32)n1` came in with an ED50 in [16] of 1.49 mg/kg.

Take `CCOC(=O)c1cn2c(n1)c(C#N)cc1ccccc12`: in [3], the ED50 result is “inactive”. Regarding `CCn1c(=O)c2c(C(=O)OC)c(C(=O)O)cn2c2ccccc21`, in assay [17], the ED50 entry was “inactive”.

As to `c1ccc2c(c1)ncc1nc(-c3nn[nH]n3)cn12`, the ED50 was 0.012 mg/kg in [18] and 0.089 mg/kg in assay [19]. For `CCn1c(=O)c2ccccc2n2cc(C(=O)O)nc12`, the ED50 result in assay [20] was “inactive”. On to `CCOC(=O)c1cn2c(cnc3cc(Cl)c(Cl)cc32)n1`, for which the ED50 result in [3] was “inactive”. `CCc1ccc2c(Cl)cc3nc(C(=O)O)cn3c2c1` returned an ED50 in assay [21] of 0.09 mg/kg. Take `O=C(O)c1nc2n(c1C(=O)O)-c1ccccc1OC2`: in [2], the ED50 entry was “inactive”. The compound `O=Cc1cn2c(ccc3ccccc32)n1` showed an ED50 in assay [22] of 0.093 mg/kg. Turning to `CC1Oc2ccccc2-n2cc(C(=O)O)nc21` (configuration not stated), the ED50 is 8.46 mg/kg in assay [23] and 1.76 mg/kg in assay [24]. Compound `CCOC(=O)c1cn2c(cc(Cl)c3ccc(OC)cc32)n1` registered an ED50 in [25] of 8 mg/kg. Take `COc1ccc2ccc3nc(C(N)=O)cn3c2c1`: in [1], the ED50 entry is “inactive”. As for `CCC1Oc2ccccc2-n2cc(C(=O)O)nc21` (configuration not stated), it took a dose of 2.6 mg/kg to reach the 50% effect level in assay [26] (ED50). As to `N#Cc1cn2c(n1)COc1ccccc1-2`, the ED50 entry in [27] is “inactive”. For `CCn1c(=O)c2cc(C(=O)Nc3nn[nH]n3)cn2c2ccccc21`, the ED50 in [28] turned out to be 0.18 mg/kg.

Consider `C[S+]([O-])c1cc2nc(C(=O)O)cn2c2ccccc12` (configuration not stated), for which, in [29], the 50% effect level (ED50) was put at a dose of 0.29 mg/kg. Regarding `O=C(Cc1cn2c(n1)COc1ccccc1-2)Nc1nn[nH]n1`, the ED50 result in [2] is “inactive”.
